Consider 46 molecules from patent US7772252B2, “Heterocyclic substituted carbonyl derivatives and their use as dopamine D3 receptor ligands” (Aventis Pharmaceuticals Inc., priority 2001, dated 2010).

Structures are written as SMILES. Read-outs that look alike come from different tables or passages of the source.

This assay addresses T1, cloned human dopamine D3 receptors (Homo sapiens, UniProt P35462).
T1 construct: expressed in transfected cells; membrane homogenate
In words: [N-Methyl-3H]Spiroperidol binding to cloned human dopamine D3 receptors. An excerpt: [N-Methyl-^3H]Spiroperidol Binding to Cloned Human Dopamine D3 Receptors
This assay measures the in vitro activity of compounds on cloned human dopamine (D3) receptors and predicts the direct dopamine-blocking properties of putative neuropsychiatric agents at human dopamine D3 receptors.
The D3 gene was isolated from a human striatal cDNA library (Stratagene). The gene was sequenced and sub-cloned into the expression vector RC/RSV (Invitrogen). CHO (Chinese Hamster Ovary) cells were stably transfected with 10 μg of the D3/RSV plasmid using the DOTAP method from Boehringer Mannheim and 72 clones that were G418 resistant were isolated. Using mRNA and binding displacement data a single high expressing clone was identified. This clone was then grown in large batches for the purpose of developing a 96 well format assay.
• 1. One plate (10 cm) with approximately 2-3 million D3 cells per plate is incubated with 1 ml of Trypsin-EDTA at room temperature for ˜2 min or until cells have lifted off plates. Four ml of Ham's F12+10% Fetal Bovine Serum+1% Penicillin/Streptomycin+G418 (400 μg/ml) medium are added to resuspend cells and 1 ml of this is added to each large plate (15 cm) containing 19 ml of the same medium as mentioned above. • 2. The 5 large plates are incubated at 37° C.+5% CO2 for ˜3 days or until the cells are confluent. • 3. After these plates are confluent, they are split into 10 large plates. Medium is aspirated off, 2 ml of Trypsin-EDTA are added to each plate and plates are incubated at RT for 2 min or until cells have lifted off the plate. Eight ml of the F12 medium (same medium as #1 above) are added to each plate (10 ml total) to resuspend the cells and 5 ml are transferred to the 2 new plates containing 15 ml of the F12 media. • 4. The 10 large plates are incubated at 37° C.+5% CO2 for ˜2 days or until the cells are confluent. • 5. The 10 large plates are split into 60 large plates (using Trypsin-EDTA as #3 except 4 ml of F12 medium are added to resuspend cells and 1 ml is aliquoted to 6 new plates containing 19 ml of F12 medium each). • 6. Plates are incubated at 37° C.+5% CO2 for ˜3 days or until cell are confluent. • 7. The 60 large plates are then split into 60 roller bottles (100-150 million cells/bottle). Medium is aspirated off, 2 ml of Trypsin-EDTA are added to each plate and incubated at RT for ˜2 minutes or until cells have lifted off plates. Eight ml of F12 medium are added to each plate to resuspend cells and the entire 10 ml are added to 1 roller bottle containing 90 ml of the F12 medium. • 8. The 60 roller bottles are immediately placed on their sides and transferred to the roller bottle incubator. They are incubated at 37° C.+5% CO2 for ˜3-5 days. Cells are spun at 30-40% motor speed in the Form a incubator. • 9. Medium is poured off and cells are washed 2× in PBS. • 10. Cells are then scraped off in 20 ml of PBS and the bottles are rinsed again with 5 ml of PBS to remove any remaining cells. Cells are stored on ice before membrane preparation. • 11. The yield for 60 D3 roller bottles has varied from ˜260-500 mg. • Note: All tissue culture reagents are from Gibco-BRL. C. Membrane Preparation
The cells are harvested into 250 ml centrifuge tubes with 100 volumes of cold phosphate buffered saline (PBS) and spun down (1200×G for 10 min at 4° C.). The medium is removed and 100 ml PBS are added to each centrifuge tube, cells are resuspened and spun down again. The PBS is removed and the final pellet is homogenized in an appropriate volume of 10% DMSO with a polytron on ice at a medium setting.
A 200 μl sample membrane homogenate is added to 200 μl of 1% SDS, vortexed and allowed to stand for 5 min. Aliquots (25, 50 and 100 μl) of this mixture are assayed in duplicate following the standard Bio-Rad DC protein assay protocol (kit catalog number 500-0112) and using reagent S. Absorbance readings are made at 750 nm (note: the most accurate protein OD readings are between 0.1-0.5 units). […]

T1 sequence (P35462 whole entry): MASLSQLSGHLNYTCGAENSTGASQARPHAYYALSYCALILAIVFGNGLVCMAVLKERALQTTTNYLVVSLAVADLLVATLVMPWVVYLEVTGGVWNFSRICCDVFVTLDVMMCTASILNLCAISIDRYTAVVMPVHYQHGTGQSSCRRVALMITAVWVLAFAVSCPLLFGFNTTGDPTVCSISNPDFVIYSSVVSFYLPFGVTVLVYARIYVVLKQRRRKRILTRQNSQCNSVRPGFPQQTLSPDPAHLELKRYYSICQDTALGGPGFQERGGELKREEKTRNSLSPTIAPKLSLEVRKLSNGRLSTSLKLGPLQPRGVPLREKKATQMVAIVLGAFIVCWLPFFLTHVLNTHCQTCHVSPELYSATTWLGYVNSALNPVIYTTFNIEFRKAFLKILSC

With `O=C(C1CC1CN1CCC(c2noc3ccsc23)CC1)N1CCN(CCCc2ccccc2)CC1` (racemic) [compound 832197], the Ki (read-out: D3 Ki) amounted to 17.1 nM. On the same count and under the same terms, then `CN(C)CCCNC(=O)[C@@H]1C[C@H]1CN1CCN(c2csc3cc(C(F)(F)F)ccc23)CC1` [compound 831888], with 17.5 nM; and `O=C(NCCCN1CCCCC1)[C@@H]1C[C@H]1CN1CCC(c2nsc3cc(Br)ccc23)CC1` [A002329100], with 6.32 nM; and `O=C(NC1CCN(Cc2ccc(F)cc2F)CC1)[C@@H]1C[C@H]1CN1CCC(c2noc3ccsc23)CC1` [compound 833167], with 1.57 nM. Same read-out and setting: then `O=C(NC1CCN(Cc2ccccc2Cl)CC1)C1CC1CN1CCC(c2noc3ccsc23)CC1` (racemic) [compound 831996], with 7.97 nM; and `O=C(NCCCN1CCCCC1)[C@@H]1C[C@H]1CN1CCC(c2noc3c(C(F)(F)F)cccc23)CC1` [compound 832272], with 145 nM; and `CC1CCC(NC(=O)C2CC2CN2CCN(c3onc4c3CCc3ccccc3-4)CC2)CC1` (racemic) [compound 830121], with 47.1 nM. `O=C([C@@H]1C[C@H]1CN1CCN(c2csc3cc(C(F)(F)F)ccc23)CC1)N1CCC[C@H](CN2CCCCC2)C1` [A002438638]: where the note is “read-out: D3 Ki”, the Ki was found to be 3.28 nM. The same measure, in the same setting: then `O=C([C@@H]1C[C@H]1CN1CCC(c2csc3cc(C(F)(F)F)ccc23)CC1)N1CCC[C@@H](Cn2ccnc2)C1` [A002609935, (3S-Imidazol-1-ylmethyl-piperidin-1-yl)-{2R-[4-(6-trifluoromethyl-benzo[b]thiophen-3-yl)-piperidin-1-ylmethyl]-1R-cyclopropyl}-methanone], with 0.142 nM; and `COc1ccccc1CN1CCC(NC(=O)[C@@H]2C[C@H]2CN2CCC(c3noc4ccsc34)CC2)CC1` [compound 832724], with 1.44 nM. The same measure, in the same setting: then `O=C(C1CC1CN1CCC(c2noc3ccsc23)CC1)N1CCN(Cc2ccc(F)cc2)CC1` (racemic) [compound 832164], with 6.6 nM; and `O=C(NCCCn1ccnc1)[C@@H]1C[C@H]1CN1CCN(c2csc3cc(Cl)ccc23)CC1` [compound 834172], with 0.837 nM. The same measure, in the same setting: then `CCCCn1nc(N2CCN(C[C@@H]3C[C@H]3C(=O)NCCCn3ccnc3)CC2)c2sccc21` [A002202401], with 205 nM; and `O=C(NC[C@@H]1CCNC1)[C@@H]1C[C@H]1CN1CCC(c2noc3ccsc23)CC1` [compound 833384], with 5.68 nM; and `Cn1nc(N2CCN(CCCC(=O)N[C@H]3CC[C@H](C)CC3)CC2)c2sccc21` [A002201941], with 119 nM. With `O=C(NCCCN1CCOCC1)[C@@H]1C[C@H]1CN1CCN(c2nn(-c3ccc(C(F)(F)F)cc3)c3ccsc23)CC1` [compound 834205], the Ki (read-out: D3 Ki) was 90.5 nM. The same measure, in the same setting: then `COc1ccc2c(c1)c(N1CCN(C[C@@H]3C[C@H]3C(=O)NCCCN3CCCCC3)CC1)nn2C` [compound 833120], with 138 nM; and `Cc1ccc2c(c1)c(C1CCN(C[C@@H]3C[C@H]3C(=O)N[C@H]3CC[C@H](C)CC3)CC1)nn2C` [compound 834059], with 2.76 nM. Still for that read-out and setting: then `O=C(NC1CCN(Cc2ccc(Oc3ccccc3)cc2)CC1)C1CC1CN1CCC(c2noc3ccsc23)CC1` (racemic) [compound 831820], with 6.54 nM; and `COc1cccc2c(C3CCN(C[C@@H]4C[C@H]4C(=O)N4CCC(C(=O)c5ccc(F)cc5)CC4)CC3)noc12` [compound 831810], with 124 nM. The same measure, in the same setting: then `O=C([C@@H]1C[C@H]1CN1CCC(c2csc3cc(C(F)(F)F)ccc23)CC1)N1CCC(Cn2ccnc2)CC1` [compound 834017], with 1.62 nM. `O=C(C1CC1CN1CCC(c2noc3ccsc23)CC1)N1CCC(Oc2ccc(F)cc2)CC1` (racemic) [compound 829595]: the Ki (read-out: D3 Ki) is 201 nM. The same measure, in the same setting: then `CC1(C)COCN1C(=O)[C@@H]1C[C@H]1CN1CCC(c2noc3ccsc23)CC1` [compound 829464], with 22.4 nM; and `O=C(N[C@H]1CC[C@H](O)CC1)C1(CCN2CCN(c3csc4cc(C(F)(F)F)ccc34)CC2)CC1` [compound 832520], with 141 nM. Still for that read-out and setting: then `O=C(NCCCn1ccnc1)[C@@H]1C[C@H]1CN1CCN(c2nn(-c3ccc(F)cc3)c3ccsc23)CC1` [compound 832565], with 1.45 nM; and `O=C(NC1CCN(Cc2cc(F)cc(F)c2)CC1)[C@@H]1C[C@H]1CN1CCC(c2noc3ccsc23)CC1` [compound 833166], with 1.72 nM; and `CC(C)(C)OC(=O)N1CCN(CCNC(=O)[C@@H]2C[C@H]2CN2CCN(c3csc4cc(C(F)(F)F)ccc34)CC2)CC1` [compound 833277], with 16.7 nM. For `CC(C)(C)OC(=O)N1CCC(NC(=O)[C@@H]2C[C@H]2CN2CCN(c3csc4cc(C(F)(F)F)ccc34)CC2)CC1` [compound 832499], where the note is “read-out: D3 Ki”, the Ki was determined as 19.7 nM. The same measure, in the same setting: then `O=C(NC1CC1)[C@@H]1C[C@H]1CN1CCC(c2noc3ccsc23)CC1` [compound 829460], with 158 nM; and `CCCc1cc(N2CCN(CC3CC3C(=O)NC3CCC(C)CC3)CC2)nc(C(C)(C)C)n1` (racemic) [compound 817275], with 3.34 nM; and `CC(C)N1CCN(C(=O)[C@@H]2C[C@H]2CN2CCC(c3noc4ccsc34)CC2)CC1` [compound 833127], with 79.6 nM. The same measure, in the same setting: then `O=C([C@@H]1C[C@H]1CN1CCC(c2noc3ccsc23)CC1)N1CCN(c2ccccn2)CC1` [compound 830252], with 110 nM; and `NCCN1CCN(C(=O)[C@@H]2C[C@H]2CN2CCN(c3csc4cc(C(F)(F)F)ccc34)CC2)CC1` [compound 833323], with 3.46 nM.

Consider `CN1C2CCC1CC(NC(=O)[C@@H]1C[C@H]1CN1CCN(c3csc4cc(C(F)(F)F)ccc34)CC1)C2` (stereo partly shown) [A002439099], for which the Ki (read-out: D3 Ki) is 4.91 nM. For the molecule `O=C(C1CC1CN1CCC(c2noc3ccsc23)CC1)N1CCN(Cc2ccc(Cl)cc2)CC1` (racemic) [compound 832156], the Ki (read-out: D3 Ki) came out at 0.315 nM. Still for that read-out and setting: then `CC(C)N1CCN(C(=O)C2CC2CN2CCC(c3noc4ccsc34)CC2)CC1` (racemic) [compound 832188], with 10.1 nM. On the same count and under the same terms, then `CN1CCN(CCCNC(=O)C2CC2CN2CCC(c3noc4ccsc34)CC2)CC1` (racemic) [compound 831741], with 125 nM; and `O=C(NC1CCN(Cc2ccc(C(F)(F)F)cc2)CC1)[C@@H]1C[C@H]1CN1CCC(c2noc3ccsc23)CC1` [compound 833160], with 2.09 nM; and `COc1ccccc1CCNC(=O)C1CC1CN1CCC(c2noc3ccsc23)CC1` (racemic) [compound 831805], with 10.2 nM. Still for that read-out and setting: then `Cc1cn(CCCNC(=O)[C@@H]2C[C@H]2CN2CCC(c3noc4ccsc34)CC2)cn1` [compound 831937], with 35 nM.

Turning to `O=C(NC1CCNCC1)[C@@H]1C[C@H]1CN1CCC(c2noc3ccsc23)CC1` [compound 833383], for the setting “read-out: D3 Ki”, the Ki came out at 2.57 nM. Take `O=C([C@@H]1C[C@H]1CN1CCN(c2csc3cc(C(F)(F)F)ccc23)CC1)N1CCN(Cc2ccc(Cl)c(Cl)c2)CC1` [compound 831881]: the Ki (read-out: D3 Ki) came out at 109 nM. Same read-out and setting: then `O=C(NCCCc1ccccc1)[C@@H]1C[C@H]1CN1CCC(c2noc3ccsc23)CC1` [compound 830828], with 8.57 nM; and `O=C(NCCc1c[nH]cn1)[C@@H]1C[C@H]1CN1CCC(c2noc3ccsc23)CC1` [compound 831192], with 3.44 nM. With `CCOC(=O)[C@H]1CC[C@H](NC(=O)CCCN2CCN(c3csc4cc(C(F)(F)F)ccc34)CC2)CC1` [compound 826805], the Ki (read-out: d3Ki) was 14.2 nM. As for `O=C(N[C@H]1CC[C@H](O)CC1)[C@@H]1C[C@H]1CN1CCN(c2nn(-c3ccccc3)c3ccsc23)CC1` [compound 832816], the Ki (read-out: D3 Ki) is 2.57 nM.
